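Compound exposure: 48 hours, 5 concentrations, 96-well plates. Here, GI50 denotes the concentration required for 50% inhibition of growth. Definition used: TGI = concentration required for complete inhibition of growth.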
Columns and labels:
Assay in all cases: DTP human tumour cell line panel, 48 h
[1] = test system: IGROV1 ovarian
[2] = test system: HT29 colon
[3] = test system: NCI-H522 lung
[4] = test system: UACC-257 melanoma
[5] = test system: HOP-62 NSCLC
[6] = test system: PC-3 prostate
[7] = test system: SR leukemia
[8] = test system: SF-539 CNS
[9] = test system: SK-MEL-28 melanoma
[10] = test system: HL-60(TB) leukemia
[11] = test system: NCI-H23 lung
[12] = test system: NCI/ADR-RES ovarian
[13] = test system: ACHN renal
[14] = test system: OVCAR-8 ovarian
[15] = test system: NCI-H226 lung
[16] = test system: TK-10 renal
[17] = test system: A549 NSCLC
[18] = test system: HCT-15 colon
[19] = test system: U251 CNS
[20] = test system: T-47D breast
[21] = test system: CAKI-1 renal
[22] = test system: HCT-116 colon
[23] = test system: SF-268 CNS
[24] = test system: M14 melanoma
[25] = test system: BT-549 breast
[26] = test system: SNB-75 CNS
[27] = test system: A498 renal
[28] = test system: SK-MEL-2 melanoma
[29] = test system: NCI-H460 lung
[30] = test system: SNB-19 CNS
[31] = test system: MDA-MB-231 breast
[32] = test system: OVCAR-5 ovarian
[33] = test system: OVCAR-4 ovarian
[34] = test system: 786-0 renal
[35] = test system: EKVX NSCLC
[36] = test system: OVCAR-3 ovarian
[37] = test system: HCC-2998 colon
[38] = test system: KM12 colon
[39] = test system: DU-145 prostate
[40] = test system: SW-620 colon
[41] = test system: CCRF-CEM leukemia
[42] = test system: COLO 205 colon
[43] = test system: LOX IMVI melanoma
[44] = test system: RXF 393 renal
[45] = test system: HS 578T breast
[46] = test system: SK-MEL-5 melanoma
[47] = test system: MDA-MB-435
[48] = test system: UO-31 renal
[49] = test system: HOP-92 NSCLC
[50] = test system: MALME-3M melanoma
[51] = test system: MOLT-4 leukemia
[52] = test system: SK-OV-3 ovarian
[53] = test system: MCF7 breast
[54] = test system: RPMI-8226 leukemia
[55] = test system: K-562 leukemia
[56] = test system: SF-295 CNS

SMILES: C=C1C(=O)O[C@H]2[C@H]1CC/C(COC(=O)NCCc1ccc(Br)cc1)=C\CC[C@@]1(C)O[C@@H]21
- GI50 [1]: 1080 nM
- TGI [1]: 2590 nM
- GI50 [2]: 1320 nM
- TGI [2]: 3380 nM
- GI50 [3]: 1160 nM
- TGI [3]: 2730 nM
- GI50 [4]: 1630 nM
- TGI [4]: 3090 nM
- GI50 [5]: 1990 nM
- TGI [5]: 4400 nM
- GI50 [6]: 1730 nM
- TGI [6]: 3320 nM
- GI50 [7]: 430 nM
- TGI [7]: 2910 nM
- GI50 [8]: 1460 nM
- TGI [8]: 2880 nM
- GI50 [9]: 1470 nM
- TGI [9]: 3120 nM
- GI50 [10]: 1060 nM
- TGI [10]: 3970 nM
- GI50 [11]: 1720 nM
- TGI [11]: 3840 nM
- GI50 [12]: 2260 nM
- TGI [12]: 6740 nM
- GI50 [13]: 1320 nM
- TGI [13]: 2780 nM
- GI50 [14]: 1490 nM
- TGI [14]: 3690 nM
- GI50 [15]: 1720 nM
- TGI [15]: 3370 nM
- GI50 [16]: 1730 nM
- TGI [16]: 3120 nM
- GI50 [17]: 2590 nM
- TGI [17]: 6170 nM
- GI50 [18]: 1010 nM
- TGI [18]: 2330 nM
- GI50 [19]: 1400 nM
- TGI [19]: 2750 nM
- GI50 [20]: 1380 nM
- TGI [20]: 3720 nM
- GI50 [21]: 1420 nM
- TGI [21]: 2770 nM
- GI50 [22]: 477 nM
- TGI [22]: 1810 nM
- GI50 [23]: 1560 nM
- TGI [23]: 3190 nM
- GI50 [24]: 1260 nM
- TGI [24]: 2730 nM
- GI50 [25]: 1100 nM
- TGI [25]: 2600 nM
- GI50 [26]: 1200 nM
- TGI [26]: 2450 nM
- GI50 [27]: 2070 nM
- TGI [27]: 4210 nM
- GI50 [28]: 1580 nM
- TGI [28]: 3170 nM
- GI50 [29]: 2060 nM
- TGI [29]: 4640 nM
- GI50 [30]: 1390 nM
- TGI [30]: 2970 nM
- GI50 [31]: 1420 nM
- TGI [31]: 3080 nM
- GI50 [32]: 1960 nM
- TGI [32]: 4470 nM
- GI50 [33]: 1560 nM
- TGI [33]: 3290 nM
- GI50 [34]: 1040 nM
- TGI [34]: 2400 nM
- GI50 [35]: 1540 nM
- TGI [35]: 3290 nM
- GI50 [36]: 984 nM
- TGI [36]: 2270 nM
- GI50 [37]: 1710 nM
- TGI [37]: 3370 nM
- GI50 [38]: 1950 nM
- TGI [38]: 4460 nM
- GI50 [39]: 771 nM
- TGI [39]: 2040 nM
- GI50 [40]: 711 nM
- TGI [40]: 2400 nM
- GI50 [41]: 279 nM
- TGI [41]: 847 nM
- GI50 [42]: 1820 nM
- TGI [42]: 3570 nM
- GI50 [43]: 1180 nM
- TGI [43]: 2580 nM
- GI50 [44]: 1200 nM
- TGI [44]: 2680 nM
- GI50 [45]: 2410 nM
- TGI [45]: 7150 nM
- GI50 [46]: 1710 nM
- TGI [46]: 3220 nM
- GI50 [47]: 1280 nM
- TGI [47]: 2810 nM
- GI50 [48]: 1550 nM
- TGI [48]: 2950 nM
- GI50 [49]: 1280 nM
- TGI [49]: 2770 nM
- GI50 [50]: 2090 nM
- TGI [50]: 3770 nM
- GI50 [51]: 1690 nM
- TGI [51]: 4800 nM
- GI50 [52]: 10800 nM
- TGI [52]: 22800 nM
- GI50 [53]: 417 nM
- TGI [53]: 1820 nM
- GI50 [54]: 624 nM
- TGI [54]: 2890 nM
- GI50 [55]: 535 nM
- TGI [55]: 5610 nM
- GI50 [56]: 3810 nM
- TGI [56]: 15500 nM

Source: PubChem BioAssay (NCI)
